According to ChEMBL document CHEMBL1201862, “PubChem BioAssay data set” (2004):
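Cells were grown in 96-well plates and exposed to each compound for 48 hours at five concentrations; endpoints were interpolated linearly between bracketing concentrations, or set to the highest concentration if not reached. GI50: concentration for 50% inhibition of growth.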 The source made the active and inactive calls. No stated cut-off is given here; in the data, active = GI50 up to about 1.1 µM and inactive = higher.

Assays:
Experiment in all cases: NCI tumour cell line growth inhibition, 48 h
A498 = tested on: A498
CAKI-1 = tested on: CAKI-1
DMS-114 = tested on: DMS-114
DMS-273 = tested on: DMS-273
HCT-116 = tested on: HCT-116
HCT-15 = tested on: HCT-15
KM-20L2 = tested on: KM-20L2
KM12 = tested on: KM12
LOX IMVI = tested on: LOX IMVI
M14 = tested on: M14
OVCAR-5 = tested on: OVCAR-5
SK-MEL-28 = tested on: SK-MEL-28
SN12C = tested on: SN12C
TK-10 = tested on: TK-10
UACC-257 = tested on: UACC-257
HCC 2998 = tested on: HCC 2998
K562 = tested on: K562
MOLT-4 = tested on: MOLT-4
Malme-3M = tested on: Malme-3M
RXF 393 = tested on: RXF 393

SMILES	GI50 (A498)	GI50 (CAKI-1)	GI50 (DMS-114)	GI50 (DMS-273)	GI50 (HCT-116)	GI50 (HCT-15)	GI50 (KM-20L2)	GI50 (KM12)	GI50 (LOX IMVI)	GI50 (M14)	GI50 (OVCAR-5)	GI50 (SK-MEL-28)	GI50 (SN12C)	GI50 (TK-10)	GI50 (UACC-257)	GI50 (HCC 2998)	GI50 (K562)	GI50 (MOLT-4)	GI50 (Malme-3M)	GI50 (RXF 393)
O=C(O)C1CCC(=O)N1C(=O)COc1cc(Cl)c(Cl)cc1Cl (stereo unspecified)	> 100 µM (inactive)	> 100 µM (inactive)	> 100 µM (inactive)	> 100 µM (inactive)	> 100 µM (inactive)	> 100 µM	> 100 µM (inactive)	> 100 µM (inactive)	> 100 µM (inactive)	> 100 µM (inactive)	> 100 µM (inactive)	> 100 µM (inactive)	> 100 µM (inactive)	> 100 µM (inactive)	> 100 µM (inactive)	–	–	–	–	–
CCOC(=O)C(C(=O)OCC)c1cc(-c2cc3ccccc3o2)oc(=O)c1C#N	25.3 µM (inactive)	17.4 µM (inactive)	26.7 µM (inactive)	25.9 µM (inactive)	21.3 µM (inactive)	19.1 µM	19.3 µM (inactive)	35.6 µM (inactive)	17.9 µM (inactive)	20.8 µM (inactive)	18.5 µM (inactive)	25.1 µM (inactive)	24.4 µM (inactive)	27.3 µM (inactive)	25.6 µM (inactive)	19.5 µM (inactive)	29 µM (inactive)	21.6 µM (inactive)	22.4 µM (inactive)	19.6 µM (inactive)
CCOC(=O)C(OP(=O)(OCC)OCC)C(F)(F)F (stereo unspecified)	> 100 µM (inactive)	–	–	–	> 100 µM (inactive)	> 100 µM	–	> 100 µM (inactive)	> 100 µM (inactive)	> 100 µM (inactive)	> 100 µM (inactive)	> 100 µM (inactive)	> 100 µM (inactive)	> 100 µM (inactive)	> 100 µM (inactive)	> 100 µM (inactive)	> 100 µM (inactive)	> 100 µM (inactive)	> 100 µM (inactive)	> 100 µM (inactive)
N#Cc1ccccc1NC(=O)C(=O)C(C(=O)c1ccccc1F)C1OC(=O)c2ccccc21 (stereo unspecified)	> 100 µM (inactive)	64.4 µM (inactive)	35.5 µM (inactive)	30.8 µM (inactive)	34.2 µM (inactive)	30.1 µM	76.7 µM (inactive)	41.2 µM (inactive)	21.9 µM (inactive)	82 µM (inactive)	65.6 µM (inactive)	39.4 µM (inactive)	28.2 µM (inactive)	> 100 µM (inactive)	58.2 µM (inactive)	19.9 µM (inactive)	36.7 µM (inactive)	25 µM (inactive)	–	44.3 µM (inactive)
Clc1ccccc1/C=C/c1cscn1	> 100 µM (inactive)	–	> 100 µM (inactive)	–	> 100 µM (inactive)	> 100 µM	–	> 100 µM (inactive)	> 100 µM (inactive)	> 100 µM (inactive)	> 100 µM (inactive)	> 100 µM (inactive)	> 100 µM (inactive)	> 100 µM (inactive)	> 100 µM (inactive)	> 100 µM (inactive)	> 100 µM (inactive)	> 100 µM (inactive)	> 100 µM (inactive)	> 100 µM (inactive)
Cc1cccc(C(O)c2cccnc2)c1O (stereo unspecified)	–	> 100 µM (inactive)	–	–	> 100 µM (inactive)	> 100 µM	–	> 100 µM (inactive)	> 100 µM (inactive)	–	39.2 µM (inactive)	> 100 µM (inactive)	> 100 µM (inactive)	> 100 µM (inactive)	66.7 µM (inactive)	44.2 µM (inactive)	> 100 µM (inactive)	> 100 µM (inactive)	> 100 µM (inactive)	> 100 µM (inactive)
CC(C)=CCC(OC(=O)C=C(C)C)c1cc(O)c2c(c1O)C(=O)C=CC2=O (stereo unspecified)	2.62 µM (inactive)	0.64 µM (active)	1.05 µM (active)	1.98 µM (inactive)	0.279 µM (active)	0.398 µM	1.82 µM (inactive)	2.42 µM (inactive)	0.261 µM (active)	–	3.89 µM (inactive)	0.853 µM (active)	1.04 µM (active)	–	0.753 µM (active)	2.4 µM (inactive)	0.27 µM (active)	–	0.428 µM (active)	0.218 µM (active)
Nc1nnc2ccc(Cl)cc2[n+]1[O-]	68.5 µM (inactive)	> 100 µM (inactive)	–	–	39.7 µM (inactive)	36.2 µM	–	> 100 µM (inactive)	57.5 µM (inactive)	39.1 µM (inactive)	> 100 µM (inactive)	62.5 µM (inactive)	> 100 µM (inactive)	> 100 µM (inactive)	94 µM (inactive)	40.8 µM (inactive)	21.8 µM (inactive)	35.1 µM (inactive)	54 µM (inactive)	29.8 µM (inactive)
O=c1c(-c2ccccc2)c(SCCN2CCCCCC2)n(-c2ccccc2)c(=S)n1-c1ccccc1	19.7 µM (inactive)	22.9 µM (inactive)	–	–	–	51.3 µM	–	27.3 µM (inactive)	50.7 µM (inactive)	–	21.1 µM (inactive)	> 100 µM (inactive)	–	48.4 µM (inactive)	86.3 µM (inactive)	3.52 µM (inactive)	19.6 µM (inactive)	13.4 µM (inactive)	12.5 µM (inactive)	17.2 µM (inactive)
CC1=CC[C@H](C)C(C)(C)C1/C=C/C(C)=C/CC[C@@]1(CO)[C@H](CCCO)/C(=C(/C)C=O)CC[C@]1(C)O (stereo partly specified)	–	3.61 µM (inactive)	–	2.2 µM (inactive)	–	7.64 µM	1.82 µM (inactive)	1.61 µM (inactive)	0.824 µM (active)	2.07 µM (inactive)	23.6 µM (inactive)	11.4 µM (inactive)	5.68 µM (inactive)	5.5 µM (inactive)	15.2 µM (inactive)	2.31 µM (inactive)	1.31 µM (inactive)	1.57 µM (inactive)	3.27 µM (inactive)	14.6 µM (inactive)
COc1cc(/N=N\c2ccc(OC)c(S(=O)(=O)O)c2)c(C)cc1/N=N\c1ccc(/C=C/c2ccc(/N=[N+](/[O-])c3ccc(/C=C/c4ccc(/N=N/c5cc(C)c(/N=N\c6ccc(OC)c(S(=O)(=O)O)c6)cc5OC)cc4S(=O)(=O)O)c(S(=O)(=O)O)c3)cc2S(=O)(=O)O)c(S(=O)(=O)O)c1	> 100 µM (inactive)	–	> 100 µM (inactive)	> 68.1 µM (inactive)	> 100 µM (inactive)	> 100 µM	95.1 µM (inactive)	> 100 µM (inactive)	> 100 µM (inactive)	–	> 100 µM (inactive)	> 100 µM (inactive)	> 100 µM (inactive)	–	> 100 µM (inactive)	> 100 µM (inactive)	> 100 µM (inactive)	> 100 µM (inactive)	> 100 µM (inactive)	> 100 µM (inactive)
Cc1ccc(NC(=O)S(N)(c2ccc(C)cc2)[N+](=O)[O-])cc1 (stereo unspecified)	> 100 µM (inactive)	> 100 µM (inactive)	–	–	> 100 µM (inactive)	> 100 µM	–	> 100 µM (inactive)	> 100 µM (inactive)	> 100 µM (inactive)	> 100 µM (inactive)	> 100 µM (inactive)	> 100 µM (inactive)	> 100 µM (inactive)	> 100 µM (inactive)	> 100 µM (inactive)	8.87 µM (inactive)	84.7 µM (inactive)	> 100 µM (inactive)	> 100 µM (inactive)
